The values that follow come from patent US6780883B2, “Amide inhibitors of microsomal triglyceride transfer protein” (Warner-Lambert Company, priority 1998, dated 2004).

Assay [1] has as its target apolipoprotein(a), [apo(a)], apolipoproteinB-100, [apoB-100], coupling reaction that generates Lp(a) (Homo sapiens, UniProt P04114+P08519). In words: LPABC screen: lipoprotein(a) biochemical coupling assay, Lp(a) content by ELISA. The note with it: recombinant apo(a) 17-kringle (293 cell media) + HepG2 conditioned media, 67 minutes, 37° C., 0.3 to 50 μM compound; read-out: Lp ABC IC50. The essentials: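 Conditioned medium from 293 cells stably expressing 17-kringle apo(a), diluted 1:3 in PBS and prewarmed 10 min at 37 °C, mixed with compound (added as 0.3–50 μM PBS solution) then 1:3-diluted HepG2 conditioned medium as apoB-100 source. Incubated 67 min at 37 °C; Lp(a) formed quantified by ELISA.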

In assay [2] the test system is Lp(a) production in HepG2^K17 cells. In words: LPA3 screen: inhibition of Lp(a) production in transfected HepG2 cells, Lp(a) in media by ELISA. It is filed as cell-based. As to conditions: Homo sapiens, 8 hours, 0.3 to 50 μM compound, Lp(a) normalized for total protein, read-out: Lp A3 IC50. The method in brief: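 HepG2 cells stably expressing apo(a) 17-kringle construct, seeded overnight, then exposed to 0.3 to 50 μM compound for 8 h at 37 °C. Lp(a) secreted into media measured by ELISA and normalized to total cellular protein.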
(In general: ELISA stands for enzyme-linked immunosorbent assay.)

What is called IC50 is the concentration at which inhibition is half-maximal. Take `COc1cc(C(=O)N(Cc2ccc(C(C)(C)C)cc2)c2cnc3ccccc3c2)cc(OC)c1OC` [Example 63, N-(4-tert-Butyl-benzyl)-3,4,5-trimethoxy-N-quinolin-3-yl-benzamide]: the IC50 in assay [1] was > 50 µM; in assay [2] it was 25.1 µM.
For `COc1ccc(N(Cc2ccccc2-c2ccccc2)C(=O)c2ccccc2OC)cn1` [Example 91, N-Biphenyl-2-ylmethyl-2-methoxy-N-(6-methoxy-pyridin-3-yl)-benzamide] the same measures were > 50 µM and 46.5 µM.
For `CCOc1ccccc1C(=O)N(Cc1ccccc1-c1ccccc1)c1ccncc1` [Example 118, N-Biphenyl-2-ylmethyl-2-ethoxy-N-pyridin-4-yl-benzamide], the results for the IC50 in assay [1] and in assay [2] were > 50 µM and 5.8 µM, respectively.
Turning to `COc1ccc(N(Cc2ccccc2-c2ccccc2)C(=O)c2ccccc2SC(C)C)cc1OC` [Example 135, N-Biphenyl-2-ylmethyl-N-(3,4-dimethoxy-phenyl)-2-isopropylsulfanyl-benzamide], the results for the IC50 in assay [1] and in assay [2] were > 50 µM and 21.9 µM, respectively.
For `CCC[S+]([O-])c1ccccc1C(=O)N(Cc1ccccc1-c1ccccc1)c1ccc(OC)c(OC)c1` (centres unmarked) [Example 141, N-Biphenyl-2-ylmethyl-N-(3,4-dimethoxy-phenyl)-2-(propane-1-sulfinyl)-benzamide], in that order: > 50 µM and 6 µM.
For the compound `COc1ccc(CN(C(=O)c2ccc(OC)c(OC)c2)c2ccccc2)cc1` [Example 44, 3,4-Dimethoxy-N-(4-methoxy-benzyl)-N-phenyl-benzamide], the IC50 in assay [1] is > 50 µM; in assay [2], 51.4 µM.
For `COc1ccc(C(=O)N(Cc2ccc(Cl)c(Cl)c2)c2ccccc2)cc1OC` [Example 46, N-(3,4-Dichloro-benzyl)-3,4-dimethoxy-N-phenyl-benzamide], in that order: > 50 µM and 35.1 µM.
For `CCOc1ccccc1C(=O)N(Cc1ccccc1-c1ccccc1)c1cccnc1` [Example 81, N-Biphenyl-2-ylmethyl-2-ethoxy-N-pyridin-3-yl-benzamide] the same measures were > 50 µM and 0.9 µM.
For `O=C(c1ccccc1OCc1ccccc1)N(Cc1cccnc1)Cc1ccccc1-c1ccccc1` [Example 101, 2-Benzyloxy-N-biphenyl-2-ylmethyl-N-pyridin-3-ylmethyl-benzamide] the same measures were > 50 µM and 10.8 µM.
As for `COc1ccc(N(Cc2ccccc2-c2ccccc2)C(=O)c2ccccc2SC)cc1OC` [Example 134, N-Biphenyl-2-ylmethyl-N-(3,4-dimethoxy-phenyl)-2-methylsulfanyl-benzamide], the IC50 was > 50 µM in assay [1] and 12.9 µM in assay [2].
`COc1ccc(N(Cc2ccc3c(c2)C(C)(C)CCC3(C)C)C(=O)c2cc(OC)c(OC)c(OC)c2)cn1` [Example 65, 3,4,5-Trimethoxy-N-(6-methoxy-pyridin-3-yl)-N-(5,5,8,8-tetramethyl-5,6,7,8-tetrahydro-naphthalen-2-ylmethyl)-benzamide]: the IC50 was > 50 µM in assay [1] and 32.6 µM in assay [2].
For `CCOc1ccccc1C(=O)N(Cc1ccc(OC)cc1)c1cccnc1` [Example 76, 2-Ethoxy-N-(4-methoxy-benzyl)-N-pyridin-3-yl-benzamide] the same measures were > 50 µM and 33.3 µM.
For `CCCSc1ccccc1C(=O)N(Cc1ccccc1-c1ccccc1)c1ccc(OC)c(OC)c1` [Example 133, N-Biphenyl-2-ylmethyl-N-(3,4-dimethoxy-phenyl)-2-propylsulfanyl-benzamide], in that order: > 50 µM and 16.7 µM.
For `CCOc1ccccc1C(=O)N(Cc1ccc(C(C)(C)C)cc1)c1cccnc1` [Example 80, N-(4-tert-Butyl-benzyl)-2-ethoxy-N-pyridin-3-yl-benzamide], in that order: > 50 µM and 19.2 µM.
For `CCCCOc1ccc(N(Cc2ccc3c(c2)C(C)(C)CCC3(C)C)C(=O)CN(CC)CC)cn1` [Example 82, N-(6-Butoxy-pyridin-3-yl)-2-diethylamino-N-(5,5,8,8-tetramethyl-5,6,7,8-tetrahydro-naphthalen-2-ylmethyl)-acetamide], the concentration for half-maximal inhibition (IC50) is > 50 µM in assay [1] and 36.8 µM in assay [2].
Regarding `CCOc1ccccc1C(=O)N(Cc1ccc2c(c1)C(C)(C)CCC2(C)C)c1cccnc1` [Example 73, 2-Ethoxy-N-pyridin-3-yl-N-(5,5,8,8-tetramethyl-5,6,7,8-tetrahydro-naphthalen-2-ylmethyl)-benzamide], the IC50 was > 50 µM in assay [1] and 10 µM in assay [2].
Regarding `O=C(c1ccccc1[N+](=O)[O-])N(Cc1ccccc1-c1ccccc1)c1cccnc1` [Example 117, N-Biphenyl-2-ylmethyl-2-nitro-N-pyridin-3-yl-benzamide], the IC50 in assay [1] is > 50 µM; in assay [2] it was 18 µM.
For `O=C(c1sc2ccccc2c1Cl)N(Cc1cccnc1)Cc1ccccc1-c1ccccc1` [Example 99, 3-Chloro-benzo[b]thiophene-2-carboxylic acid biphenyl-2-ylmethyl-pyridin-3-ylmethyl-amide] the same measures were > 50 µM and 24.7 µM.
For `COc1cccc(CN(C(=O)c2ccccc2)c2ccccc2)c1` [Example 61, N-(3-Methoxy-benzyl)-N-phenyl-benzamide], in that order: > 50 µM and 47.1 µM.
For `CCOc1ccccc1C(=O)N(Cc1cccnc1)Cc1ccccc1-c1ccccc1` [Example 96, N-Biphenyl-2-ylmethyl-2-ethoxy-N-pyridin-3-ylmethyl-benzamide] the same measures were > 50 µM and 7.5 µM.
With `CCN(CC)CCCc1ccc(N(Cc2cc(Br)cc(Br)c2)C(=O)c2ccccc2)cc1` [Example 53, N-(3,5-Dibromo-benzyl)-N-[4-(3-diethylamino-propyl)-phenyl]-benzamide], the IC50 in assay [1] was > 50 µM; in assay [2], 14.6 µM.
For `COc1cccc(N(Cc2ccccc2-c2ccccc2)C(=O)c2ccccc2SC)c1` [Example 129, N-Biphenyl-2-ylmethyl-N-(3-methoxy-phenyl)-2-methylsulfanyl-benzamide] the same measures were > 50 µM and 6.5 µM.
On to `Cc1ccsc1C(=O)N(Cc1ccc2c(c1)C(C)(C)CCC2(C)C)c1ccc(I)cc1` [Example 59, 3-Methyl-thiophene-2-carboxylic acid (4-iodo-phenyl)-(5,5,8,8-tetramethyl-5,6,7,8-tetrahydro-naphthalen-2-ylmethyl)-amide], for which the half-inhibitory concentration (IC50) in assay [1] was > 50 µM; in assay [2], 41.1 µM.
For `COc1ccc(C(=O)N(Cc2ccccc2-c2ccccc2)c2ccc(OC)cc2)cc1` [Example 103, N-Biphenyl-2-ylmethyl-4-methoxy-N-(4-methoxy-phenyl)-benzamide], in that order: > 50 µM and 49 µM.
For `CCOc1ccccc1C(=O)N(Cc1ccccc1-c1ccccc1)c1ccc(OC)nc1` [Example 90, N-Biphenyl-2-ylmethyl-2-ethoxy-N-(6-methoxy-pyridin-3-yl)-benzamide], the IC50 was > 50 µM in assay [1] and 31.7 µM in assay [2].
For `COc1ccccc1C(=O)N(Cc1ccccc1-c1ccccc1)c1ccncc1` [Example 119, N-Biphenyl-2-ylmethyl-2-methoxy-N-pyridin-4-yl-benzamide] the same measures were > 50 µM and 4.8 µM.
In the case of `O=C(c1cc2ccccc2s1)N(Cc1ccccc1-c1ccccc1)c1ccncc1` [Example 93, Benzo[b]thiophene-2-carboxylic acid biphenyl-2-ylmethyl-pyridin-4-yl-amide], the IC50 in assay [1] was > 50 µM; in assay [2], 10.5 µM.
For `O=C(c1ccccc1Br)N(Cc1ccccc1-c1ccccc1)c1cccnc1` [Example 114, N-Biphenyl-2-ylmethyl-2-bromo-N-pyridin-3-yl-benzamide] the same measures were > 50 µM and 26.7 µM.
For `O=C(c1ccccc1OCc1ccccc1)N(Cc1ccccc1-c1ccccc1)c1ccncc1` [Example 123, 2-Benzyloxy-N-biphenyl-2-ylmethyl-N-pyridin-4-yl-benzamide], in that order: > 50 µM and 2.3 µM.
For `COc1ccc(N(Cc2ccccc2-c2ccccc2)C(=O)c2ccccc2SC(C)C)cc1` [Example 127, N-Biphenyl-2-ylmethyl-2-isopropylsulfanyl-N-(4-methoxy-phenyl)-benzamide], in that order: > 50 µM and 49.4 µM.
Turning to `O=C(c1ccccc1SCc1ccccc1)N(Cc1ccccc1-c1ccccc1)c1ccc(Cl)cc1` [Example 132, 2-Benzylsulfanyl-N-biphenyl-2-ylmethyl-N-(4-chloro-phenyl)-benzamide], the IC50 in assay [1] is > 50 µM; in assay [2], > 74 µM.
With `CCOc1ccccc1C(=O)N(Cc1cc(Br)cc(Br)c1)c1cccnc1` [Example 75, N-(3,5-Dibromo-benzyl)-2-ethoxy-N-pyridin-3-yl-benzamide], the values for the IC50 in assay [1] and in assay [2] were > 50 µM and 14.9 µM, respectively.
For `CCOc1ccccc1C(=O)N(Cc1ccc(Cl)c(Cl)c1)c1cccnc1` [Example 78, N-(3,4-Dichloro-benzyl)-2-ethoxy-N-pyridin-3-yl-benzamide] the same measures were > 50 µM and 10.3 µM.
For `CCN(CC)CCCc1ccc(N(Cc2cc(C(C)(C)C)cc(C(C)(C)C)c2)C(=O)c2ccccc2)cc1` [Example 51, N-(3,5-Di-tert-butyl-benzyl)-N-[4-(3-diethylamino-propyl)-phenyl]-benzamide], in that order: > 50 µM and 24.5 µM.
